US8716292B2, “Riminophenazines with 2-(heteroaryl)amino substituents and their anti-microbial activity” (priority 2010, dated 2014)
Converted amounts (≈) assume the structure as drawn.

Test system: Mycobacterium tuberculosis H37Rv strains
Test: In vitro assay for antimicrobial susceptibility (microplate Alamar blue MIC)
Type: cell-based
Conditions: Mycobacterium tuberculosis, H37RV, 7H9, Alamar blue, inhibition ≧90%; read-out: MIC (μg/mL) against H37Rv

Row | SMILES | MIC [µg/mL]
1 | CC(C)/N=c1\cc2n(-c3ccc(F)c(F)c3)c3ccccc3nc-2cc1Nc1ncccn1 [TBI-1437, 5-(3,4-Difluorophenyl)-3-(1-methylethyl)imino-2-(pyrimidin-2-yl)amino-3,5-dihydrophenazine] | 0.02 (≈ 0.0452 µM)

Same assay, conditions: Mycobacterium tuberculosis, H37RV, in vitro, Mycobacterium tuberculosis H37Rv strains; read-out: MIC (μg/mL) against H37Rv

Row | SMILES | MIC [µg/mL]
2 | COc1ncccc1Nc1cc2nc3ccccc3n(-c3ccc(OC(F)(F)F)cc3)c-2c/c1=N\C1CCOCC1 [TBI-167, 5-(4-Trifluoromethoxyphenyl)-3-(4-tetrahydropyranyl)imino-2-(2-methoxy-3-pyridyl)amino-3,5-dihydrophenazine] | 0.016 (≈ 0.0285 µM)
3 | COc1ncccc1Nc1cc2nc3ccc(F)cc3n(-c3ccc(Cl)cc3)c-2c/c1=N\C1CCOCC1 [TBI-928] | 0.5 (≈ 0.943 µM)
4 | CC(C)/N=c1\cc2n(-c3cccc(C(F)(F)F)c3)c3ccccc3nc-2cc1Nc1cccnc1 [TBI-730, 5-(3-Trifluoromethylphenyl)-3-(1-methylethyl)imino-2-(3-pyridyl)amino-3,5-dihydrophenazine] | 0.205 (≈ 0.433 µM)
5 | Cc1ccc(-n2c3c/c(=N\C4CCOCC4)c(Nc4cccnc4)cc-3nc3ccccc32)cc1 [TBI-303, 5-(4-Methylphenyl)-3-(4-tetrahydropyranyl)imino-2-(3-pyridinyl)amino-3,5-dihydrophenazine] | 0.03 (≈ 0.065 µM)
6 | Clc1ccc(-n2c3c/c(=N\C4CC4)c(Nc4cccnc4)cc-3nc3ccccc32)c(Cl)c1 [TBI-367, 5-(2,4-Dichlorophenyl)-3-cyclopropylimino-2-(3-pyridyl)amino-3,5-dihydrophenazine] | 0.023 (≈ 0.0487 µM)
7 | CC(C)/N=c1\cc2n(-c3ccc(OC(F)(F)F)cc3)c3ccccc3nc-2cc1Nc1cccnc1 [TBI-157, 5-(4-Trifluoromethoxyphenyl)-3-(1-methylethyl)imino-2-(3-pyridyl)amino-3,5-dihydrophenazine] | 0.03 (≈ 0.0613 µM)
8 | Cc1ccc(Nc2cc3nc4ccccc4n(-c4ccccc4)c-3c/c2=N\C2CCC(O)CC2)cn1 (centres unmarked) [TBI-086] | 0.5 (≈ 1.05 µM)
9 | COc1ccc(Nc2cc3nc4ccccc4n(-c4ccc(C(F)(F)F)cc4)c-3c/c2=N\C2CCC2)cn1 [TBI-737, 5-(4-Trifluoromethylphenyl)-3-cyclobutylimino-2-(6-methoxy-3-pyridyl)amino-3,5-dihydrophenazine] | 0.119 (≈ 0.231 µM)
10 | Fc1ccc(-n2c3c/c(=N\C4CCC4)c(Nc4cccnc4)cc-3nc3ccccc32)cc1F [TBI-526, 5-(3,4-Difluorophenyl)-3-cyclobutylimino-2-(3-pyridyl)amino-3,5-dihydrophenazine] | 0.079 (≈ 0.174 µM)
11 | Cc1ncccc1Nc1cc2nc3ccccc3n(-c3ccc(F)cc3)c-2c/c1=N\C1CCC(O)CC1 (centres unmarked) [TBI-1015, 5-(4-Fluorophenyl)-3-(4-hydroxycyclohexyl)imino-2-(2-methyl-3-pyridyl)amino-3,5-dihydrophenazine] | 0.387 (≈ 0.784 µM)
12 | Clc1ccc(-n2c3c/c(=N\C4CCOCC4)c(Nc4cccnc4)cc-3nc3ccccc32)cc1Cl [TBI-351, 5-(3,4-Dichlorophenyl)-3-(4-tetrahydropyranyl)imino-2-(3-pyridyl)amino-3,5-dihydrophenazine] | 0.079 (≈ 0.153 µM)
13 | COc1ncccc1Nc1cc2nc3ccc(F)cc3n(-c3ccc(OC(F)(F)F)cc3)c-2c/c1=N\C1CC1 [TBI-857] | 0.045 (≈ 0.084 µM)
14 | COc1ncccc1Nc1cc2nc3ccccc3n(-c3ccc(Cl)cc3Cl)c-2c/c1=N\C1CCC1 [TBI-893, 5-(2,4-Dichlorophenyl)-3-cyclobutylimino-2-(2-methoxy-3-pyridyl)amino-3,5-dihydrophenazine] | 0.06 (≈ 0.116 µM)
15 | Cc1ccc(Nc2cc3nc4cc(F)ccc4n(-c4ccc(Cl)c(Cl)c4)c-3c/c2=N\C2CC2)cn1 [TBI-888] | 0.028 (≈ 0.0555 µM)
16 | Cc1ccc(Nc2cc3nc4ccc(F)cc4n(-c4ccc(Cl)cc4)c-3c/c2=N\C2CCCCC2)cn1 [TBI-918, 7-Fluoro-5-(4-chlorophenyl)-3-cyclohexylimino-2-(6-methyl-3-pyridyl)amino-3,5-dihydrophenazine] | 0.253 (≈ 0.494 µM)
17 | COc1ccc(Nc2cc3nc4ccccc4n(-c4ccccc4)c-3c/c2=N\C2CCC2)cn1 [TBI-512, 5-Phenyl-3-cyclobutylimino-2-(6-methoxy-3-pyridyl)amino-3,5-dihydrophenazine] | 0.41 (≈ 0.916 µM)
